Experiments:
in vitro = in vitro ADME; conditions: 37°C
Experimental: Plates (96-well Polypropylene Deep Well Plate; Corning Inc., Somerville, MA, US) containing 100 µL of 5 µM compounds in human plasma (Seralab, Granollers, Spain), pooled from healthy donors and extracted in citrate tubes, were incubated at 37°C for different times (0, 60, 120, and 360 min). Then, 300 µL ACN was added to precipitate plasma protein, and the plate was centrifuged at 4000 × g for 60 min at 4°C. For sample quantification, the resulting supernatant was taken and analyzed by ultra performance liquid chromatography with tandem mass spectrometry (UPLC-MS/MS; ACQUITY Xevo TQD UPLC QSM; Waters) in an ACQUITY BEH C18 column (1.7 µm, 2.1 × 50 mm; Waters). As mobile phase (0.6 mL/min flow rate) was used the following gradient of 0.1% formic acid in water (A) or in ACN (B): 95% A:5% B from 0 to 0.1 min, gradual increase to 100% B from 0.1 to 1 min, maintenance in 100% B from 1 to 2 min, return to 95% A:5% B from 2 to 2.1 min, and maintenance of this ratio from 2.1 to 2.5 min. Compound concentrations were calculated from the MS peak areas.

P. falciparum = test system: P. falciparum; design: method as in PMID 36271358; conditions: read-out: IC50 in in vitro P. falciparum cultures; cited from earlier work
[1] = test system: L. infantum promastigote cultures; assay: Protein aggregation assay in L. infantum cultures (ThT fluorescence); type: cell-based, Leishmania infantum; conditions: 0.15 and 0.3 µM YAT2150, 90 min and 4 h, promastigote culture extracts
Experimental: Ten milliliters of L. infantum promastigote cultures in the logarithmic growth phase at a concentration of 10^7 cells/mL in T-25 flasks (SPL Life Sciences, Pochon, Kyonggi-do, South Korea) was either treated with 0.15 µM or 0.3 µM YAT2150 or left untreated. After 90 min and 4 h of incubation, 1 mL of each culture was washed (3×, 1 mL PBS, 600 × g, 3 min) and the parasite-containing pellets were taken up in 100 µL of 4.5 mg/mL NaCl supplemented with 1× cOmplete protease inhibitor cocktail (Roche, Basel, Switzerland) and incubated overnight at 4°C with gentle stirring. After this time, samples were spun down (2,000 × g, 10 s) and the protein in each supernatant was quantified with the Pierce BCA protein assay kit (Thermo Electron Corporation, Waltham, MA, US). In a 96-well flat bottom black plate (Greiner Bio-One), 2 µg of protein from each supernatant was diluted in a final volume of 100 µL PBS in duplicates. Protein aggregation was measured by the addition of 25 µM ThT to each well, and after a 15-min incubation with gentle stirring, ThT fluorescence emission intensity was measured as detailed above.

[2] = Human microsomal stability assay; type: in vitro ADME; conditions: 37°C
Experimental: The following components were added in a 96-well microplate in a final volume of 500 µL 50 mM Na/K phosphate buffer, pH 7.4 (stock solutions are indicated in parentheses, dissolved in the same buffer unless otherwise specified): […] NADP (10 mM), 10 µM glucose 6-phosphate (100 mM), […] glucose 6-phosphate dehydrogenase (40 U/mL, dissolved in 5 mM sodium citrate), 3 µM MgCl2·6 H2O (30 mM, dissolved in H2O), 0.8 mg protein/mL of human microsomes (10 mg/mL protein; XenoTech), and 1 µM of test compound (100 µM, dissolved in ACN). Plates were incubated at 37°C and 75 µL samples were taken at 0, 10, 20, 40, and 60 min, to which 75 µL ACN + internal standard (Rolipram) to inactivate the microsomes and 30 µL of 0.5% formic acid in H2O to improve the chromatographic conditions were added, and kept at 4°C. When all the samples were taken, the plate was centrifuged at 46,000 × g for 30 min at 15°C, and UPLC-MS/MS was performed as above, except for the time in 100% B from 1 to 2.5 min, the return to 95% A:5% B from 2.5 to 2.6 min, and the maintenance of this ratio from 2.6 to 3.0 min. Metabolic stability was calculated from the logarithm of the remaining compound at each of the times evaluated.

For CCN(CC)c1ccc(/C=C/c2cc[n+](CCCCCCCCCC[n+]3ccc(/C=C/c4ccc(N(CC)CC)cc4)c(C)c3)cc2C)cc1 [YAT2150], the “% remaining, plasma stability” value (in vitro; human plasma, after 6 h) was 91.3%, the remaining at 1 h, 5 µM (in vitro; human, plasma, after 1 h, read-out: % remaining, plasma stability) was 100% and the remaining at 2 h, 5 µM (in vitro; human, plasma, after 2 h, read-out: % remaining, plasma stability) was 99.7%. For the same molecule, the remaining at 6 h, 5 µM (in vitro; human, plasma, after 6 h, read-out: % remaining, plasma stability) was 91%, the IC50 (P. falciparum) was about 90 nM and the “overall aggregation of the parasite's proteins (ThT analysis)” value [1] was “reduced”. For the same molecule, the “t1/2, microsomal stability” value ([2]; human microsomes) was 1.34 h, the remaining at 1 h, 1 µM ([2]; human, microsomes, pH 7.4, human microsomes, after 1 h) was 55% and the half-life at 1 µM ([2]; human, microsomes, pH 7.4, human microsomes, read-out: t1/2, microsomal stability) was 1.33 h. For the same molecule, the microsomal CLint at 1 µM ([2]; pH 7.4, human microsomes) was 10.6 µL/min/mg.
